From PubChem BioAssay AID1259407 (Chemical Carcinogenesis Research Information System (CCRIS), 2018)
The source made the active and inactive calls. How the calls were made is not given here.

Tested on: CCRIS mutagenicity, Ames/micronucleus/aberration tests
Assay: CCRIS mutagenicity studies
[1] = Test System: AMES SALMONELLA TYPHIMURIUM, Strain/Indicator: TA98, Metabolic Activation: NONE, Method: STANDARD PLATE
[2] = Test System: AMES SALMONELLA TYPHIMURIUM, Strain/Indicator: TA98, Metabolic Activation: RAT, LIVER, S-9, AROCLOR 1254, Method: STANDARD PLATE
[3] = Test System: AMES SALMONELLA TYPHIMURIUM, Strain/Indicator: TA100, Metabolic Activation: NONE, Method: STANDARD PLATE
[4] = Test System: AMES SALMONELLA TYPHIMURIUM, Strain/Indicator: TA100, Metabolic Activation: RAT, LIVER, S-9, AROCLOR 1254, Method: STANDARD PLATE
[5] = Test System: AMES SALMONELLA TYPHIMURIUM, Strain/Indicator: TA1535, Metabolic Activation: NONE, Method: STANDARD PLATE
[6] = Test System: AMES SALMONELLA TYPHIMURIUM, Strain/Indicator: TA1537, Metabolic Activation: NONE, Method: STANDARD PLATE
[7] = Test System: AMES SALMONELLA TYPHIMURIUM, Strain/Indicator: TA1537, Metabolic Activation: RAT, LIVER, S-9, AROCLOR 1254, Method: STANDARD PLATE

Measured: mutagenic call

O=[N+]([O-])O[C@@H]1CO[C@H]2[C@@H]1OC[C@@H]2O
inactive: [1] inactive; negative | [2] inactive; negative | [3] inactive; negative | [4] inactive; negative | [5] inactive; negative | Test System: AMES SALMONELLA TYPHIMURIUM, Strain/Indicator: TA1535, Metabolic Activation: RAT, LIVER, S-9, AROCLOR 1254, Method: STANDARD PLATE inactive; negative | [6] inactive; negative | [7] inactive; negative

C=C1[C@H](O)[C@@]23CC[C@H]4[C@@](C)(CCC[C@@]4(C)C(=O)O)[C@@H]2CC[C@]1(O)C3
inactive: Test System: AMES SALMONELLA TYPHIMURIUM, Strain/Indicator: TM677, Metabolic Activation: RAT, LIVER, S-9, AROCLOR 1254, Method: PREINCUBATION inactive; negative

C=CC(=O)OCC(CC)(COC(=O)C=C)COC(=O)C=C
inactive: End Point: In vivo micronucleus, Test System: Peripheral blood normochromatic erythrocytes, Species: Mouse, Strain/Sex: B6C3F1/Female, Route: Dermal inactive; negative | End Point: In vivo micronucleus, Test System: Peripheral blood normochromatic erythrocytes, Species: Mouse, Strain/Sex: B6C3F1/Male, Route: Dermal inactive; negative | End Point: In vivo micronucleus, Test System: Peripheral blood normochromatic erythrocytes, Species: Mouse, Strain/Sex: FVB.N/TgN (v-Ha-ras) Tg.AC hemizygous/Female, Route: Dermal inactive; negative, purity 80% | End Point: In vivo micronucleus, Test System: Peripheral blood normochromatic erythrocytes, Species: Mouse, Strain/Sex: FVB.N/TgN (v-Ha-ras) Tg.AC hemizygous/Male, Route: Dermal inactive; negative | Test System: AMES SALMONELLA TYPHIMURIUM, Strain/Indicator: TA98, Metabolic Activation: HAMSTER, LIVER, S-9, AROCLOR 1254, Method: STANDARD PLATE inactive; negative | [1] inactive; negative | [2] inactive; negative | Test System: AMES SALMONELLA TYPHIMURIUM, Strain/Indicator: TA100, Metabolic Activation: HAMSTER, LIVER, S-9, AROCLOR 1254, Method: STANDARD PLATE inactive; negative | [3] inactive; negative | [4] inactive; negative | [5] inactive; negative | Test System: AMES SALMONELLA TYPHIMURIUM, Strain/Indicator: TA1537, Metabolic Activation: HAMSTER, LIVER, S-9, AROCLOR 1254, Method: STANDARD PLATE inactive; negative | [6] inactive; negative | [7] inactive; negative | Test System: CHINESE HAMSTER OVARY, Strain/Indicator: CHO-K1-BH4 (HGPRT)/6-THIOGUANINE, Metabolic Activation: NONE, Method: SUSPENSION/PLATE inactive; negative | Test System: CHINESE HAMSTER OVARY, Strain/Indicator: CHO-K1-BH4 (HGPRT), Metabolic Activation: NONE, Method: MONOLAYER inactive; negative | Test System: MOUSE LYMPHOMA, Strain/Indicator: L5178Y (TK+/TK-), Metabolic Activation: RAT, LIVER, S-9, AROCLOR 1254, Method: SUSPENSION/PLATE inactive; negative
active: Test System: AMES SALMONELLA TYPHIMURIUM, Strain/Indicator: TA1535, Metabolic Activation: HAMSTER, LIVER, S-9, AROCLOR 1254 (5-20%), Method: STANDARD PLATE active; positive | Test System: AMES SALMONELLA TYPHIMURIUM, Strain/Indicator: TA1535, Metabolic Activation: HAMSTER, LIVER, S-9, AROCLOR 1254, Method: STANDARD PLATE active; positive | Test System: CHINESE HAMSTER OVARY, Strain/Indicator: CHO-K1-BH4 (HGPRT), Metabolic Activation: NONE active; positive | Test System: CHINESE HAMSTER OVARY, Strain/Indicator: CHO-K1-BH4 (HGPRT), Metabolic Activation: NONE, Method: SUSPENSION/PLATE active; positive | Test System: Mouse lymphoma, Strain/Indicator: L5178Y (tk+/tk-), Metabolic Activation: None, Method: Suspension/plate active; positive | Test System: Mouse lymphoma, Strain/Indicator: L5178Y (tk+/tk-), Metabolic Activation: Rat, Liver, S-9, Aroclor 1254, Method: Suspension/plate active; positive

CCOP(=S)(OCC)OP(=S)(OCC)OCC
inactive: Test System: AMES SALMONELLA TYPHIMURIUM, Strain/Indicator: TA97, Metabolic Activation: HAMSTER, LIVER, S-9, AROCLOR 1254 (10%), Method: PREINCUBATION inactive; negative | Test System: AMES SALMONELLA TYPHIMURIUM, Strain/Indicator: TA97, Metabolic Activation: NONE, Method: PREINCUBATION inactive; negative | Test System: AMES SALMONELLA TYPHIMURIUM, Strain/Indicator: TA97, Metabolic Activation: RAT, LIVER, S-9, AROCLOR 1254 (10%), Method: PREINCUBATION inactive; negative | Test System: AMES SALMONELLA TYPHIMURIUM, Strain/Indicator: TA98, Metabolic Activation: HAMSTER, LIVER, S-9, AROCLOR 1254 (10%), Method: PREINCUBATION inactive; negative | Test System: AMES SALMONELLA TYPHIMURIUM, Strain/Indicator: TA98, Metabolic Activation: NONE, Method: PREINCUBATION inactive; negative | Test System: AMES SALMONELLA TYPHIMURIUM, Strain/Indicator: TA98, Metabolic Activation: RAT, LIVER, S-9, AROCLOR 1254 (10%), Method: PREINCUBATION inactive; negative | Test System: AMES SALMONELLA TYPHIMURIUM, Strain/Indicator: TA100, Metabolic Activation: HAMSTER, LIVER, S-9, AROCLOR 1254 (10%), Method: PREINCUBATION inactive; negative | Test System: AMES SALMONELLA TYPHIMURIUM, Strain/Indicator: TA100, Metabolic Activation: NONE, Method: PREINCUBATION inactive; negative | Test System: AMES SALMONELLA TYPHIMURIUM, Strain/Indicator: TA100, Metabolic Activation: RAT, LIVER, S-9, AROCLOR 1254 (10%), Method: PREINCUBATION inactive; negative | Test System: AMES SALMONELLA TYPHIMURIUM, Strain/Indicator: TA1535, Metabolic Activation: NONE, Method: PREINCUBATION inactive; negative | Test System: AMES SALMONELLA TYPHIMURIUM, Strain/Indicator: TA1535, Metabolic Activation: RAT, LIVER, S-9, AROCLOR 1254 (10 OR 30%), Method: PREINCUBATION inactive; negative
active: Test System: AMES SALMONELLA TYPHIMURIUM, Strain/Indicator: TA1535, Metabolic Activation: HAMSTER, LIVER, S-9, AROCLOR 1254 (5, 10 OR 30%), Method: PREINCUBATION active; positive

CC(Br)C(=O)NCc1ccc(Cl)cc1 (stereo unspecified)
active: Test System: AMES SALMONELLA TYPHIMURIUM, Strain/Indicator: TA100, Metabolic Activation: MOUSE, LIVER, S-9, AROCLOR 1254, Method: STANDARD PLATE active; positive | [3] active; positive

CCCCCC[C@H]1C(=O)O[C@H](C)[C@H](NC(=O)c2cccc(NC=O)c2O)C(=O)O[C@@H](C)[C@@H]1OC(=O)CC(C)C
active: End Point: In vitro chromosomal aberrations, Test System: Chinese hamster lung (CHL/IU) cells, Metabolic Activation: Rat, Liver, S-9, Phenobarbital and 5,6-benzoflavone (16.7%) active; positive (structural aberrations) | End Point: In vitro chromosomal aberrations, Test System: Chinese hamster ovary (CHO-WBL) cells, Metabolic Activation: Rat, Liver, S-9, Phenobarbital and 5,6-benzoflavone (5%) active; positive (structural changes and polyploidy) | End Point: In vitro chromosomal aberrations, Test System: Chinese hamster ovary (CHO-WBL) cells, Metabolic Activation: Rat, Liver, S-9, Phenobarbital and 5,6-benzoflavone (16.7%) active; positive (polyploidy)
inactive: End Point: In vitro chromosomal aberrations, Test System: Chinese hamster lung (CHL/IU) cells, Metabolic Activation: None inactive; negative | Test System: MOUSE LYMPHOMA, Strain/Indicator: L5178Y (TK+/TK-), Metabolic Activation: NONE, Method: SUSPENSION/PLATE inactive; negative
